Experimental findings from BindingDB's records for doi:10.1007/BF02244985 (Mayo Clinic, 1994) are described below.

In general, Ki refers to a dissociation constant, usually derived from enzyme kinetics or from competition with a known ligand. High values mean a looser hold on the target, low ones a stronger hold on the target.

Counter-ions that a name gives are not always drawn.

Assay [1] has as its target T1, Alpha-2A adrenergic receptor (Homo sapiens, UniProt P08913).
T1 sequence (P08913 whole entry): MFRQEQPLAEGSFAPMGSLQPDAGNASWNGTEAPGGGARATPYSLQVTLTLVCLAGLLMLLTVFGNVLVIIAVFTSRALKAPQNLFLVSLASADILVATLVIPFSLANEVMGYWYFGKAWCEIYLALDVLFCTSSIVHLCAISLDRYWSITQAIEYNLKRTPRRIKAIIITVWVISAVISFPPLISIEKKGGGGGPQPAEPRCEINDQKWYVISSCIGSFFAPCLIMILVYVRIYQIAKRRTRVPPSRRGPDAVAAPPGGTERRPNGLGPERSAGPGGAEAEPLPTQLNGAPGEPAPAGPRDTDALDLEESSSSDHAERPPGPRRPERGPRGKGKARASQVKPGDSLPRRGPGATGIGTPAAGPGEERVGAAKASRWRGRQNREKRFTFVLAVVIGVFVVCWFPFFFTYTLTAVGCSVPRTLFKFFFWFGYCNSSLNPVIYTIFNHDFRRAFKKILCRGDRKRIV

A further assay has as its target D(2) dopamine receptor (Homo sapiens, UniProt P14416).
For assay [2], the target named is T2, 5-hydroxytryptamine receptor 1A (Homo sapiens, UniProt P08908).
T2 sequence (P08908 whole entry): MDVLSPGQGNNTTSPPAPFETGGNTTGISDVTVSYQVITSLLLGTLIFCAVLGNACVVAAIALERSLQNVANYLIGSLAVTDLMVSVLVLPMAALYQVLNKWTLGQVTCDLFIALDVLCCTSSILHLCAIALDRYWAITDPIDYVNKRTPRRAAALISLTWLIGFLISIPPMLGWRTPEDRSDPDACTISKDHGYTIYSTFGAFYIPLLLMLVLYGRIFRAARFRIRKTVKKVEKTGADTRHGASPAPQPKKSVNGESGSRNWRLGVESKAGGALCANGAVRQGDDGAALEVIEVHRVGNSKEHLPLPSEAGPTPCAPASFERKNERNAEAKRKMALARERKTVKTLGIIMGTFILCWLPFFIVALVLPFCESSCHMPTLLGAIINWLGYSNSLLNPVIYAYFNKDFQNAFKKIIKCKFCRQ

In assay [3] the target is T3, Muscarinic acetylcholine receptor M2 (Homo sapiens, UniProt P08172).
T3 sequence (P08172 whole entry): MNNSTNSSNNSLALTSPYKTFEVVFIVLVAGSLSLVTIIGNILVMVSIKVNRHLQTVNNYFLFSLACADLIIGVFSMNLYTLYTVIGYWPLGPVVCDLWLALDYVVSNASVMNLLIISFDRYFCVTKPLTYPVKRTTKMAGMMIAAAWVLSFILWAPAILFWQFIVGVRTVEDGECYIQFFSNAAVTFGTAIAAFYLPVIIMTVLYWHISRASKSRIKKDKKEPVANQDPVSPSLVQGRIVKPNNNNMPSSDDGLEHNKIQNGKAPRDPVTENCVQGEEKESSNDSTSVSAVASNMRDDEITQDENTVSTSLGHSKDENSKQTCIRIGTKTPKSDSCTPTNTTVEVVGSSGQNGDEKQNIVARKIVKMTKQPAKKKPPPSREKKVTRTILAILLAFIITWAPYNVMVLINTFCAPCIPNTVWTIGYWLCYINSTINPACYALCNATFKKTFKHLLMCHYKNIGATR

The target in assay [4] is T4, Alpha-1A adrenergic receptor (Homo sapiens, UniProt P35348).
T4 sequence (P35348 whole entry): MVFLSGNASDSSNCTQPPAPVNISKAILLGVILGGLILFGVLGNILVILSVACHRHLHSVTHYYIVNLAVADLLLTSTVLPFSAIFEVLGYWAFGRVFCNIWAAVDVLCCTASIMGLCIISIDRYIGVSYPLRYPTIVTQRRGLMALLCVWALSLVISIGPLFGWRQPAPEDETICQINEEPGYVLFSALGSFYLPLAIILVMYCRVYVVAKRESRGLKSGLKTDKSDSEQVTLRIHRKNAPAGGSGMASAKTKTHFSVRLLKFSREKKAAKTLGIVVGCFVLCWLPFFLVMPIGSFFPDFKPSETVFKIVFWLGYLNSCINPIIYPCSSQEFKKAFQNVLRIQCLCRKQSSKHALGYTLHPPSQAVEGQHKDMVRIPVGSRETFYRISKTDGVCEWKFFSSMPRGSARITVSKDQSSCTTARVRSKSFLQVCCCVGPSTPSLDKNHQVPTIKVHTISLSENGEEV

Sequence of D(2) dopamine receptor (P14416 whole entry): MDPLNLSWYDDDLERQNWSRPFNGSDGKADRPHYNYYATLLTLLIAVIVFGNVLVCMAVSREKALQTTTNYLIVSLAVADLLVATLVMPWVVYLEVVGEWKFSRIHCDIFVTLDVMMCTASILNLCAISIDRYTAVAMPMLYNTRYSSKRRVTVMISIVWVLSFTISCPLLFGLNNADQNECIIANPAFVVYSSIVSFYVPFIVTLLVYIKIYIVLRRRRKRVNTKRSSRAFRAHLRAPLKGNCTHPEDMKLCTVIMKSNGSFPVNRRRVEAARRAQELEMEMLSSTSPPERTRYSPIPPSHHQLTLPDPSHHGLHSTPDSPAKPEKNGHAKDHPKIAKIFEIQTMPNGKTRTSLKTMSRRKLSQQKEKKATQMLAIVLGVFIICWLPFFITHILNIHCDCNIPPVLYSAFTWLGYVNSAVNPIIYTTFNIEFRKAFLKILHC

With `CN(C)CCCN1c2ccccc2CCc2ccccc21`, the inhibition constant (Ki) in assay [1] was 3100 nM; on D(2) dopamine receptor it was 620 nM; in assay [2], 5800 nM; in assay [3], 46 nM; in assay [4], 32 nM.
As to `CN(C)CCC=C1c2ccccc2CCc2ccccc21`, the Ki in assay [1] worked out at 690 nM; on D(2) dopamine receptor, 1460 nM; in assay [2] it was 450 nM; in assay [4], 24 nM.
Turning to `N[C@H]1CC[C@@H](c2ccc(Cl)c(Cl)c2)c2ccccc21`, the Ki is 7800 nM in assay [1]; over 10000 nM at D(2) dopamine receptor; over 10000 nM in assay [2]; 1430 nM in assay [3]; 1200 nM in assay [4].
Molecule `CN(C)CC/C=C1/c2ccccc2COc2ccccc21` had a Ki on D(2) dopamine receptor of 360 nM.
Regarding `CCc1nn(CCCN2CCN(c3cccc(Cl)c3)CC2)c(=O)n1CCOc1ccccc1` [2-{3-[4-(3-chlorophenyl)piperazin-1-yl]propyl}-5-ethyl-4-(2-phenoxyethyl)-2,4-dihydro-3H-1,2,4-triazol-3-one], the Ki on D(2) dopamine receptor came out at 910 nM; in assay [2], 80 nM; in assay [4], 48 nM.
For the molecule `COc1ccc(OC[C@H]2CN(C)CC[C@@H]2c2ccccc2)cc1` [(3R,4S)-3-(4-Methoxy-phenoxymethyl)-1-methyl-4-phenyl-piperidine], the Ki came to 1970 nM in assay [1]; 590 nM on D(2) dopamine receptor; 2290 nM in assay [2]; 184 nM in assay [3]; 650 nM in assay [4].
In the case of `CC(NC(C)(C)C)C(=O)c1cccc(Cl)c1` (stereo not given) [BUPROPION HYDROCHLORIDE], the inhibitory constant (Ki) in assay [1] is over 10000 nM; on D(2) dopamine receptor, over 10000 nM; in assay [2], over 10000 nM; in assay [3], over 10000 nM; in assay [4], 4200 nM.
`CN(CCCN1c2ccccc2CCc2ccccc21)CC(=O)c1ccc(Cl)cc1` [CAS_23047-25-8]: the Ki in assay [1] turned out to be 2700 nM; on D(2) dopamine receptor, 2000 nM; in assay [2], 4600 nM; in assay [3], 67 nM; in assay [4], 100 nM.
On D(2) dopamine receptor, `CNCCCN1c2ccccc2CCc2ccccc21` [Desmethylimipramine] displayed a Ki of 3500 nM.
On to `CNCCC(Oc1ccccc1C)c1ccccc1` (stereo not given) [Methyl-(3-phenyl-3-o-tolyloxy-propyl)-amine(tomoxetine)], for which, in assay [4], affinity was put at a Ki of 3800 nM. That is a single-digit micromolar value.
With `NCC[C@H](Oc1ccc(C(F)(F)F)cc1)c1ccccc1` [NORFLUOXETINE], the Ki was over 10000 nM in assay [1]; over 10000 nM on D(2) dopamine receptor; over 10000 nM in assay [2]; 810 nM in assay [3]; 3900 nM in assay [4].
For the molecule `CNCCC=C1c2ccccc2CCc2ccccc21` [NORTRIPTYLINE], the Ki on D(2) dopamine receptor came out at 2570 nM; in assay [2] it was 294 nM; in assay [3] it was 37 nM; in assay [4] it was 55 nM.
As for `CN(C)Cc1nnc2n1-c1ccc(Cl)cc1C(c1ccccc1)=NC2` [NSC_37632], the Ki (in assay [1]; at D(2) dopamine receptor; in assay [2]; in assay [3]; in assay [4]) was over 10000 nM in each case.
For `CCc1nn(CCCN2CCN(c3cccc(Cl)c3)CC2)c(=O)n1CC` [NSC_40589], the Ki is 570 nM in assay [1]; 2300 nM at D(2) dopamine receptor; 85 nM in assay [2]; over 10000 nM in assay [3]; 38 nM in assay [4].
In the same order, the values of `COc1ccc(C(CN(C)C)C2(O)CCCCC2)cc1` (stereo not given) [NSC_62923] are over 10000 nM, over 10000 nM, over 10000 nM, over 10000 nM and over 10000 nM.
In the case of `Fc1ccc([C@@H]2CCNC[C@H]2COc2ccc3c(c2)OCO3)cc1` [PAROXETINE], the Ki (on D(2) dopamine receptor; in assay [2]) was over 10000 nM throughout.
As for `CN[C@@H]1CC[C@@H](c2ccc(Cl)c(Cl)c2)c2ccccc21` [[4-(3,4-Dichloro-phenyl)-1,2,3,4-tetrahydro-naphthalen-1-yl]-methyl-amine], the Ki on D(2) dopamine receptor was over 10000 nM; in assay [2], over 10000 nM; in assay [3], 630 nM; in assay [4], 380 nM.
